Structures are written as SMILES.

The assay addresses T1, human GPR131 (Homo sapiens, UniProt Q8TDU6).
T1 construct: expressed in transfected cells
T1 sequence (Q8TDU6 1-330): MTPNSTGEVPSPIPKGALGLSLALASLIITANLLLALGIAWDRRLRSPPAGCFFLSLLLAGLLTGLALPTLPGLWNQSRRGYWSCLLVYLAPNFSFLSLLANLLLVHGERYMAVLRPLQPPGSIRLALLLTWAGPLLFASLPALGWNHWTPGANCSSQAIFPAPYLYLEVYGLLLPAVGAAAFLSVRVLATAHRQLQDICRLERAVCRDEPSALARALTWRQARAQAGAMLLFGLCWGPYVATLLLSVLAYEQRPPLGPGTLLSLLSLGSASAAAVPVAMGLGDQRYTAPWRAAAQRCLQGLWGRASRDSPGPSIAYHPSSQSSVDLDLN
The assay is described as follows: Stimulation of cAMP in stable cell line expressing human GPR131 (FRET cAMP kit). The note with it: 0.5 h; 1.1 μM compound, relative to maximal stimulatory activity of lithocholic acid at 3.3 μM; 30 minutes at 37° C.; read-out: Percent Activity @ 1.1 μM (of 3.3 uM LCA) (%). The format is cell-based. How it is done: This assay was developed using a stable cell line expressing human GPR131.
To measure cAMP activity in response to GPR131 agonists, GPR131 cells suspended in DMEM/F12 medium with 1 mM IBMX were seeded in 384 well plates at 5000 cells per well. After incubating with test compounds at 37° C. for 30 minutes cAMP was measured using a fluorescene resonance energy transfer cAMP kit from Cis Bio (Bedford, Mass.) according to the manufacturer's instructions. Briefly, cells were lysed, and cAMP levels determined by competitive immunoassay using D2 labeled cAMP, and europium cryptate tagged anti cAMP antibody. Decreases in the FRET signal (fluorescence ratio (665 nm/620 […]) correspond to increases in intracellular cAMP levels.
Activities of test compounds in Table 1 below are expressed as % activity at 1.1 μM compound compared to the maximal stimulatory activity of lithocholic acid (LCA) (determined at 3.3 μM LCA)
As for `Cc1nn(C)cc1CNCc1cnc(SCc2c(F)ccc(F)c2F)n1-c1ccc(F)cc1` [Compound 531, 1-(1,3-Dimethyl-1H-pyrazol-4-yl)-N-((1-(4-fluorophenyl)-2-((2,3,6-trifluorobenzyl)thio)-1H-imidazol-5-yl)methyl)methanamine], the activation at 1.1 µM is 84%.

Turning to `Cc1nn(C)cc1CN(C)C(=O)c1cnc(SCc2c(F)cccc2Cl)n1-c1ccc(F)cc1` [Compound 532, 2-((2-Chloro-6-fluorobenzyl)thio)-N-((1,3-dimethyl-1H-pyrazol-4-yl)methyl)-1-(4-fluorophenyl)-N-methyl-1H-imidazole-5-carboxamide], the activation at 1.1 µM came out at 100%. As for `CN(Cc1ccncc1)C(=O)c1cnc(SCc2c(F)cccc2Cl)n1-c1ccc(F)cc1` [Compound 533, 2-((2-Chloro-6-fluorobenzyl)thio)-1-(4-fluorophenyl)-N-methyl-N-(pyridin-4-ylmethyl)-1H-imidazole-5-carboxamide], the figure is 100%; as for `CN(Cc1ccncc1)C(=O)c1cnc(CCc2ccccc2F)n1-c1ccc(F)cc1` [Compound 538, 2-(2-Fluorophenethyl)-1-(4-fluorophenyl)-N-methyl-N-(pyridin-4-ylmethyl)-1H-imidazole-5-carboxamide], 90%; as for `O=C(c1cnc(SCc2c(F)cccc2Cl)n1-c1ccc(F)cc1)N1CCCC1c1ccncc1` (stereo not shown) [Compound 539, (2-((2-Chloro-6-fluorobenzyl)thio)-1-(4-fluorophenyl)-1H-imidazol-5-yl)(2-(pyridin-4-yl)pyrrolidin-1-yl)methanone], 95%. Turning to `Cc1nn(C)cc1CN(C)C(=O)c1cnc(SCc2c(F)cc(C(=O)OC(C)(C)C)cc2F)n1-c1ccc(F)cc1` [Compound 542, tert-butyl 4-(((5-(((1,3-Dimethyl-1H-pyrazol-4-yl)methyl)(methyl)carbamoyl)-1-(4-fluorophenyl)-1H-imidazol-2-yl)thio)methyl)-3,5-difluorobenzoate], the activation at 1.1 µM was determined as 100%. Take `Cc1nn(C)cc1CN(C)C(=O)c1cnc(SCc2ccccc2Cl)n1-c1ccc(F)cc1` [Compound 549, 2-((2-Chlorobenzyl)thio)-N-((1,3-dimethyl-1H-pyrazol-4-yl)methyl)-1-(4-fluorophenyl)-N-methyl-1H-imidazole-5-carboxamide]: the activation at 1.1 µM came out at 98%.

As to `Cc1cc(CN(C)C(=O)c2cnc(SCc3ccccc3Cl)n2-c2ccc(F)cc2)ccn1` [Compound 550, 2-((2-Chlorobenzyl)thio)-1-(4-fluorophenyl)-N-methyl-N-((2-methylpyridin-4-yl)methyl)-1H-imidazole-5-carboxamide], the activation at 1.1 µM came out at 98%. For the compound `Cc1nn(C)cc1CN(C)C(=O)c1cnc(SCc2ncccc2Cl)n1-c1ccc(F)cc1` [Compound 551], the activation at 1.1 µM was 99%. Take `Cc1nc(CSc2ncc(C(=O)N(C)Cc3cn(C)nc3C)n2-c2ccc(F)cc2)no1` [Compound 552, N-((1,3-Dimethyl-1H-pyrazol-4-yl)methyl)-1-(4-fluorophenyl)-N-methyl-2-(((5-methyl-1,2,4-oxadiazol-3-yl)methyl)thio)-1H-imidazole-5-carboxamide]: the activation at 1.1 µM turned out to be 99%.

Turning to `Cc1nn(C)cc1CN(C)C(=O)c1cnc(SCc2c(F)cccc2Cl)n1-c1ccc(Cl)cc1` [Compound 553, 2-((2-Chloro-6-fluorobenzyl)thio)-1-(4-chlorophenyl)-N-((1,3-dimethyl-1H-pyrazol-4-yl)methyl)-N-methyl-1H-imidazole-5-carboxamide], the activation at 1.1 µM came out at 100%. With `Cc1nn(C)cc1CN(C)C(=O)c1cnc(SCc2c(F)cccc2Cl)n1-c1ccccc1` [Compound 554, 2-((2-Chloro-6-fluorobenzyl)thio)-N-((1,3-dimethyl-1H-pyrazol-4-yl)methyl)-N-methyl-1-phenyl-1H-imidazole-5-carboxamide] the figure was 99%; with `CN(Cc1ccncc1)C(=O)c1cnc(SCc2c(F)cccc2Cl)n1-c1ccccc1` [Compound 555, 2-((2-Chloro-6-fluorobenzyl)thio)-N-methyl-1-phenyl-N-(pyridin-4-ylmethyl)-1H-imidazole-5-carboxamide], 100%.

Consider `CN(Cc1ccncc1)C(=O)c1cnc(SCc2c(F)cccc2Cl)n1-c1ccc(Cl)cc1` [Compound 556, 2-((2-Chloro-6-fluorobenzyl)thio)-1-(4-chlorophenyl)-N-methyl-N-(pyridin-4-ylmethyl)-1H-imidazole-5-carboxamide], for which the activation at 1.1 µM worked out at 99%. With `CN(Cc1ccncc1)C(=O)c1cnc(SCc2c(Cl)cccc2Cl)n1-c1ccc(F)cc1` [Compound 561, 2-((2,6-Dichlorobenzyl)thio)-1-(4-fluorophenyl)-N-methyl-N-(pyridin-4-ylmethyl)-1H-imidazole-5-carboxamide] the figure was 95%; with `Cc1ccccc1CSc1ncc(C(=O)N(C)Cc2ccncc2)n1-c1ccc(F)cc1` [Compound 562, 1-(4-Fluorophenyl)-N-methyl-2-((2-methylbenzyl)thio)-N-(pyridin-4-ylmethyl)-1H-imidazole-5-carboxamide], 82%.

As to `Cc1ccc(-n2c(C(=O)N(C)Cc3ccncc3)cnc2SCc2c(F)cccc2Cl)cc1` [Compound 563, 2-((2-Chloro-6-fluorobenzyl)thio)-N-methyl-N-(pyridin-4-ylmethyl)-1-(p-tolyl)-1H-imidazole-5-carboxamide], the activation at 1.1 µM was 98%. `CN(Cc1ccncc1)C(=O)c1cnc(SCc2c(F)cccc2Cl)n1-c1cccc(F)c1` [Compound 564, 2-((2-Chloro-6-fluorobenzyl)thio)-1-(3-fluorophenyl)-N-methyl-N-(pyridin-4-ylmethyl)-1H-imidazole-5-carboxamide]: the activation at 1.1 µM was determined as 99%. Consider `CN(Cc1ccncc1)C(=O)c1cnc(SCc2c(F)cccc2Cl)n1C1CCCCC1` [Compound 565, 2-((2-Chloro-6-fluorobenzyl)thio)-1-cyclohexyl-N-methyl-N-(pyridin-4-ylmethyl)-1H-imidazole-5-carboxamide], for which the activation at 1.1 µM is 99%.

Take `Cc1nn(C)cc1CN(C)C(=O)c1cnc(CSc2c(Cl)cccc2Cl)n1-c1ccc(F)cc1` [Compound 567, 2-(((2,6-Dichlorophenyl)thio)methyl)-N-((1,3-dimethyl-1H-pyrazol-4-yl)methyl)-1-(4-fluorophenyl)-N-methyl-1H-imidazole-5-carboxamide]: the activation at 1.1 µM was 96%. With `Cc1nn(C)cc1CN(C)C(=O)c1cnc(COc2c(F)ccc(F)c2F)n1-c1ccc(F)cc1` [Compound 568, N-((1,3-Dimethyl-1H-pyrazol-4-yl)methyl)-1-(4-fluorophenyl)-N-methyl-2-((2,3,6-trifluorophenoxy)methyl)-1H-imidazole-5-carboxamide] the figure was 83%; with `Cc1nn(C)cc1CN(C)C(=O)c1cnc(CSc2c(F)c(F)cc(F)c2F)n1-c1ccc(F)cc1` [Compound 569, N-((1,3-Dimethyl-1H-pyrazol-4-yl)methyl)-1-(4-fluorophenyl)-N-methyl-2-(((2,3,5,6-tetrafluorophenyl)thio)methyl)-1H-imidazole-5-carboxamide], 98%; with `Cc1nn(C)cc1CN(C)C(=O)c1cnc(CSCc2c(F)ccc(F)c2F)n1-c1ccc(F)cc1` [Compound 572, N-((1,3-Dimethyl-1H-pyrazol-4-yl)methyl)-1-(4-fluorophenyl)-N-methyl-2-(((2,3,6-trifluorobenzyl)thio)methyl)-1H-imidazole-5-carboxamide], 88%.

In the case of `CN(Cc1ccnc(Cl)c1)C(=O)c1cnc(SCc2c(F)ccc(F)c2F)n1-c1ccc(F)cc1` [Compound 578, N-((2-Chloropyridin-4-yl)methyl)-1-(4-fluorophenyl)-N-methyl-2-((2,3,6-trifluorobenzyl)thio)-1H-imidazole-5-carboxamide], the activation at 1.1 µM is 99%.

`Cc1nn(C)cc1CN(C)C(=O)c1cnc(SCc2ccncc2)n1-c1ccc(F)cc1` [Compound 579, N-((1,3-Dimethyl-1H-pyrazol-4-yl)methyl)-1-(4-fluorophenyl)-N-methyl-2-((pyridine-4-ylmethyl)thio)-1H-imidazole-5-carboxamide]: the activation at 1.1 µM came out at 85%. As for `Cc1cc(CN(C)C(=O)c2cnc(SCCc3ccc(F)c(Cl)c3)n2-c2ccc(F)cc2)ccn1` [Compound 583], the figure is 96%. With `Cc1cc(CN(C)C(=O)c2c(C)nc(SCc3c(F)ccc(F)c3F)n2-c2ccc(F)cc2)ccn1` [Compound 585, 1-(4-Fluorophenyl)-N-4-dimethyl-N-((2-methylpyridin-4-yl)methyl)-2-((2,3,6-trifluorobenzyl)thio)-1H-imidazole-5-carboxamide] the figure was 97%. Regarding `Cc1cc(CN(C)C(=O)c2cnc(S(=O)(=O)CCc3ccc(F)c(Cl)c3)n2-c2ccc(F)cc2)ccn1` [Compound 586, 2-((3-Chloro-4-fluorophenethyl)sulfonyl)-1-(4-fluorophenyl)-N-methyl-N-((2-methylpyridin-4-yl)methyl)-1H-imidazole-5-carboxamide], the activation at 1.1 µM was determined as 86%.

The record behind these values is patent US8703776B2 (Cymabay Therapeutics, Inc., priority 2011, dated 2014).
